Data set [1] has as its system S. epidermidis (ET-024 MRSA). The data set is described as follows: MIC in multidrug-resistant bacteria panel, modified microdilution. It counts as cell-based. The following applies: overnight, 37° C.
The next data set deals with S. aureus (ATCC25923). The description is as above. The format is cell-based. Particulars: overnight, 37° C.
For a further data set, the system named is E. coli (63103 ESBL). Described as above. The format is cell-based. The following applies: overnight, 37° C.
A short description of data set [2]: Metabolic stability in human liver S9 fraction, HPLC. It counts as in vitro ADME. The following applies: 37° C., after 24 hours. The method, then:
In order to identify metabolic stability of the peptoids synthesized in Preparation Example 1, such peptoids were subjected to enzymatic reaction using S9 fraction which is a mixture of human liver tissue-extracted metabolic enzymes. Thereafter, for the reaction products, metabolites were quantitated using HPLC.
Specifically, Peptoid NOS. 1 and 4, and Pexiganan as a peptide control (40 μL each, 100 μM) were treated with […], 3.3 mM MgCl2, and 1.3 mM NADPH buffer (306 μL, pH=7.4), to prepare respective samples. The respective samples were treated with S9 fraction (2 μL, 0.1 mg/mL) and then incubated at a temperature of 37° C. When 0, 1, 4, and 24 hours had elapsed after treatment with the S9 fraction, 40 μL of each sample was taken out, and acetonitrile containing the same amount of 0.1% trifluoroacetic acid was used to stop activity of enzymes contained in the S9 fraction. Thereafter, proteins precipitated with acetonitrile were centrifuged at a condition of 1,000×g for 10 minutes at a temperature of 4° C. Then, supernatant was analyzed by HPLC to identify an amount of the remaining peptoid which had not been degraded by the enzymes in the S9 fraction.

Another data set deals with E. coli. Kind of data set: Selectivity analysis, HD10 divided by MIC for E. coli. Particulars: HD10 of Table 6 divided by MIC for E. coli ATCC25922. The method, then:
In order to identify changes in selectivity depending on alteration of degree of folding in helical structure of peptoids, selectivity of each peptoid was calculated using the resultant values measured in the Experimental Examples 1 and 2. The selectivity was obtained by dividing the HD10 value by the minimum inhibitory concentration for E. coli (Table 8).

A further data set concerns red blood cells. The data set is described as follows: Hemolytic activity on red blood cells. It counts as cell-based, mouse. In short, it runs like this: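 Washed mouse red blood cells (10% v/v in PBS, pH 7.4) incubated with peptoids for 1 h at 37 °C; released haemoglobin read at 540 nm. % hemolysis normalised to 0.1% Triton X-100 (100%) and PBS blank; HD10, HD50 derived, Hmax taken at 200 μM top concentration.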

In another data set the test system is B. subtilis. It counts as cell-based. The following applies: LB medium, 18 h. In short, it runs like this:
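B. subtilis or E. coli DH5α grown 18 h at 37 °C in LB, diluted to 2×10^5 CFU/mL and exposed to 2-fold serial peptoid dilutions for 18 h at 37 °C. Growth read by A600; MIC taken as lowest concentration fully suppressing growth, averaged over three independent experiments.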

In brackets after ≈: the same amount, converted by molar mass. Non-standard residues stand in square brackets, D forms with d. Residues, ends and D or L forms follow the SMILES beside them. Nspe = C[C@H](NCC(=O)O)c1ccccc1; Nlys = NCCCCNCC(=O)O

As for `C[C@@H](c1ccccc1)N(CC(N)=O)C(=O)CN(C(=O)CN(CCCCN)C(=O)CN(C(=O)CN(C(=O)CN(CCCCN)C(=O)CN(C(=O)CN(C(=O)CN(CCCCN)C(=O)CN(C(=O)CN(C(=O)CNCCCCN)[C@@H](C)c1ccccc1)[C@@H](C)c1ccccc1)[C@@H](C)c1ccccc1)[C@@H](C)c1ccccc1)[C@@H](C)c1ccccc1)[C@@H](C)c1ccccc1)[C@@H](C)c1ccccc1` [compound 1] (H-[Nlys][Nspe][Nspe][Nlys][Nspe][Nspe][Nlys][Nspe][Nspe][Nlys][Nspe][Nspe]-NH2), the “minimum inhibitory concentration S. epidermidis (ET-024 MRSA)” value in data set [1] is recorded as <0.8 to 0.8. The “minimum inhibitory concentration S. aureus (ATCC25923)” value with S. aureus (ATCC25923) is 1.6. In addition, the “minimum inhibitory concentration E. coli (63103 ESBL)” value in the data set with E. coli (63103 ESBL) is 1.6. Further, the “remaining amount after S9 fraction treatment” value in data set [2] (human liver S9 fraction, 1440 min) is on record as “about 64%”. Moreover, in data set [2] (human, s9, pH 7.4, human liver S9 fraction, read-out: remaining amount after S9 fraction treatment), the amount remaining at 24 h, 11.5 μM is ≥ 60%. Further, in the data set with E. coli, the “Selectivity [HD10/MIC (E. coli)]” value is recorded as 0.4. Moreover, the “Hmax (%)” value was found to be 113.4 ± 2.0% in the data set with red blood cells (Table 6, hemolysis rate at 200 μM) and 100% in the data set on red blood cells (Table 13, hemolysis rate at highest concentration 200 μM). In the data set on red blood cells (Table 6, peptoid concentration causing 10% hemolysis, highest concentration 200 μM, in µM (unit assumed)), this molecule registered an HD10 of 1.2. Besides, the HD50 in the data set on red blood cells (Table 6, peptoid concentration causing 50% hemolysis, highest concentration 200 μM, in µM (unit assumed)) worked out at 42.8. Further, the “MIC B. subtilis” value with B. subtilis came out at 0.8 µM (≈ 1.46 µg/mL).

Values taken from patent US10815275B2, “Antimicrobial peptoids with improved selectivity and use thereof” (priority 2018, dated 2020).
